# Entries after “also recorded” stand apart in the source; their conditions may differ. Where two headings read alike, the source gives them in different places.
# Columns and labels:
# [1] = system: Aβ42 production, CHO-APP/ΔE9PS1 cells; assay: Secreted Aβ ELISA in CHO cells co-expressing human APP and FAD mutant PS1 (ΔE9, L286V); assay type: cell-based, Chinese hamster
# Experimental: The effects of Rg5 on the Aβ42 generation were much smaller as compared to Rgk351 and Rk1.
# FIG. 10 depicts the effects of native ginsenosides on Aβ42 production. CHO cells stably transfected with human APP695 together with either wild-type (A, CHO-APP/PS1 cells) or ΔE9 FAD mutant (B, CHO-APP/ΔE9PS1 cells) forms of PS1 were used. Cells were treated with the indicated compounds (at 50 μM) for 8 hrs. Levels of secreted Aβ40 and Aβ42 in the medium were determined by ELISA and normalized to intracellular full-length APP. In CHO-APP/PS1 cells, average Aβ amounts in control samples were 320 pM for Aβ40 and 79 pM for Aβ42. The relative levels of Aβ and Aβ42 were normalized to values obtained from non-treated and vehicle-treated cells and are shown as % to control+s.d.). One of three representative experiments are shown.
# (§1) CHO-APP/PS1 (A) and CHO-APP/ΔE9PS1 (B) cells were treated with the indicated compounds at 50 μM for 8 hrs and the levels of secreted Aβ40 and Aβ42 were determined as described in FIG. 1. […] The PS1-ΔE9 FAD mutation diminished the Aβ42 response to Rk1 treatment (B).
# [2] = system: full-length APP and APP C-terminal fragments, CHO-APP cells; assay: Western blot analysis of APP processing in CHO-APP cells; assay type: cell-based, Chinese hamster; conditions: cell lysates
# Description: (§2) FIG. 13. depicts an analysis of APP processing after Rk1 treatment. Steady-state levels of full-length APP and APP C-terminal fragments (APP-CTFs) were examined by Western blot analysis using anti-R1 antibody. […] Correlated Aβ42 levels for each sample are shown in the bottom panel.
# [3] = system: full-length APP and APP C-terminal fragments, Neuro2a-APPsw cells; assay: Western blot analysis of APP processing in neuro2a cells expressing APPsw; assay type: cell-based, mouse
# Description: as §2
# [4] = biological target: T1, γ-secretase cleavage of APP (AICD) (Homo sapiens, UniProt P49768); assay: Cell-free generation of AICD from membrane fractions of 293 cells overexpressing APP; assay type: biochemical
# T1 construct: Membrane fractions isolated from 293 cells overexpressing either APP (A), Notch-AE (B) or p75-AE (C); endogenous in cells; host or cells: 293 cells (membrane fractions); only the substrates APP, Notch-ΔE and p75-ΔE are overexpressed
# Experimental: (§3) Membrane fractions isolated from 293 cells overexpressing either APP (A), Notch-AE (B) or p75-AE (C) and incubated in the presence of indicated compounds: Compound E (CpdE, general γ-secretase inhibitor), Rgk351, Rk1 and sulindac sulfide (SS).
# [5] = biological target: T2, γ-secretase cleavage of p75 neurotrophin receptor (p75-ICD) (Homo sapiens, UniProt P49768); assay: Cell-free generation of p75-ICD from membrane fractions of 293 cells overexpressing p75-AE; assay type: biochemical
# T2 construct: Membrane fractions isolated from 293 cells overexpressing either APP (A), Notch-AE (B) or p75-AE (C); endogenous in cells; host or cells: 293 cells (membrane fractions); only the substrates APP, Notch-ΔE and p75-ΔE are overexpressed
# Experimental: as §3
# γ-secretase = γ-secretase (Homo sapiens, UniProt P49768); assay: Cell-free γ-secretase assay (CHAPSO-solubilized membrane fractions, recombinant substrates, Aβ ELISA); assay type: biochemical
# Experimental: (A) CHAPSO-solubilized membrane fractions were incubated with recombinant γ-secretase substrates together with the indicated compounds (at 100 μM) and the levels of Aβ42 and Aβ40 were determined by ELISA as described (27-29). (B) Dose-response of Aβ40 and Aβ42-lowering activity of Rk1 and (20S)Rg3 in a cell-free γ-secretase assay.
# Next, the inhibitory effects of Rk1 and (20S)Rg3 on Aβ generation in an in vitro γ-secretase assay was studied. […] In contrast, naproxen, an NSAID without Aβ42-lowering activity, had no effects on Aβ42 production (FIG. 15A).
# [6] = system: Aβ species, CHO-APP cells; assay: Mass spectrometric analysis of Aβ species produced from CHO-APP cells; assay type: cell-based, Chinese hamster; conditions: mass spectrometry, vs DMSO
# Experimental: Note that treatment leads to a decrease in Aβ42 species (1-42), and elevation in both Aβ37 (1-37) and Aβ38 (1-38). Mass spectrometric analysis of Aβ species were performed as previously described (Wang R, Sweeny D, Gandy S E, Sisodia S S. The profile of soluble amyloid β-protein in cultured cell media. J. Bio. Chem. 1996; 271: 31894-31902).
# [7] = system: Aβ40 and Aβ42 secretion, primary embryonic cortical neurons; assay: Aβ secretion in primary embryonic cortical neurons derived from Tg2576 transgenic mice; assay type: cell-based, mouse
# Description: Treatment of Rk1 and Rg3 decreased the level of secreted Aβ40 and Aβ42.
# cell viability = assay: Cell viability of treated cells; assay type: cell-based; conditions: up to 100 μM, 8 hour treatment
# Experimental: as §1
# Tables 1-3 Structure of ginsenosides utilized in the study and their effects on Aβ42 generation. They differ at the two or three side chains attached to the common triterpene backbone known as dammarane. The common structure skeleton for each group of ginsenosides is shown in the top panel. Ginsenosides that harbor Aβ42-lowering activity are indicated in the far right column of the tables: Aβ42-lowering activity (“Yes”), no profound effects (“No”), and non-determined (“ND”). Ginsenosides that affected cell viability are indicated as “Cytotoxic.” Abbreviation for carbohydrates are as follows: Glc, D-glucopyranosyl; Ara (pyr), L-arabinopyranosyl; Ara (fur), L-arabinofuranyosyl; Rha, L-rhamnopyranosyl.
# Steaming ginseng at high temperature gave rise to additional ginsenosides with enhanced pharmacological activity, including (20S)Rg3, Rk1 and Rg5 (22-25). […] Aβ40 levels were not changed by treatment with any of the ginsenosides tested. The potency of Aβ42-lowering activity was highest with Rk1 and (20S)Rg3. […] These studies provide a structure-activity relationship between the chemical structures of ginsenosides and Aβ42-lowering activity, further providing the basis for designing additional Aβ42-lowering analogues as well as for defining a class of compounds that harbor Aβ42-lowering activity.
# γ-secretase complex = γ-secretase complex (Homo sapiens, UniProt P49768); conditions: partially purified γ-secretase complex; cited from earlier work
compound,measurement,setting,value
C=C(CCC=C(C)C)[C@H]1CC[C@]2(C)[C@@H]1[C@H](O)C[C@@H]1[C@@]3(C)CC[C@H](O[C@@H]4O[C@H](CO)[C@@H](O)[C@H](O)[C@H]4O[C@@H]4O[C@H](CO)[C@@H](O)[C@H](O)[C@H]4O)C(C)(C)[C@@H]3CC[C@]12C [Rk1],Aβ42-lowering response in PS1 ΔE9 FAD mutant cells compared to PS1 wild-type cells,"[1]; 50 μM, 8 hrs, FIG. 11B vs 11A",diminished
same,Aβ42 levels,"[1]; CHO cells co-expressing human APP and FAD mutant presenilin 1 (delta E9, L286V), FIG. 8",reduced the Aβ42 levels
same,"APP C-terminal fragments (γ-secretase substrates), steady-state levels",[2],increased accumulation; also recorded: up-regulated
same,full-length APP levels,[2],not affected; also recorded: did not affect
same,full-length APP levels,[3]; Neuro2a-APPsw cells,did not affect
same,"APP C-terminal fragments, steady-state levels",[3]; neuro2a cells expressing APPsw,increased accumulation; also recorded: up-regulated
same,cell-free generation of AICD,[4],does not significantly affect; also recorded: not affected
same,cell-free generation of p75-ICD,[5],does not significantly affect; also recorded: not affected
same,Aβ generation in a cell-free γ-secretase assay,γ-secretase; FIG. 15,inhibits Aβ generation
same,Aβ42 generation in vitro,"γ-secretase; cell-free γ-secretase assay, FIG. 15 (100 μM in A)",inhibit the Aβ42 production; also recorded: potently inhibited
same,Aβ40 generation in vitro,"γ-secretase; cell-free γ-secretase assay, FIG. 15B",inhibited both Aβ40 and Aβ42 with a similar potency
same,IC50,"γ-secretase; cell-free γ-secretase assay, FIG. 15B, read-out: IC50 for Aβ40",27 ± 3 µM
same,IC50,"γ-secretase; cell-free γ-secretase assay, FIG. 15B, read-out: IC50 for Aβ42",32 ± 5 µM
same,Aβ37 (1-37),[6],elevation
same,Aβ38 (1-38),[6],elevation
same,Aβ42 species (1-42),[6],decrease
same,level of secreted Aβ40,[7],decreased
same,level of secreted Aβ42,[7],decreased
same,cell viability,cell viability,not affected
same,Aβ42 production in a cell-free assay,γ-secretase complex,inhibit the Aβ42 production

# Source: US20060014704A1, “Compounds and their preparation for the treatment of Alzheimer's disease by inhibiting beta-amyloid peptide production” (priority 2004, published 2006)
